In patent US10597387B2, “Methods to treat lymphoplasmacytic lymphoma” (Dana-Farber Cancer Institute, Inc., priority 2013, dated 2020):

What was measured:
Test in all cases: KiNativ kinase profiling
RSK1 domain1 = RSK1 domain1 (Homo sapiens (Human), UniProt Q15418); type: binding; conditions: Lys2, A375 cells, read-out: inhibition of kinase labeling
ZAP70 = ZAP70 (Homo sapiens (Human), UniProt P43403); type: binding; conditions: Activation Loop, A375 cells, read-out: inhibition of kinase labeling
MAP3K5 = MAP3K5 (Homo sapiens (Human), UniProt Q99683); type: binding; conditions: Lys2, A375 cells, read-out: inhibition of kinase labeling
Chain of MAP3K5 (Q99683 whole entry): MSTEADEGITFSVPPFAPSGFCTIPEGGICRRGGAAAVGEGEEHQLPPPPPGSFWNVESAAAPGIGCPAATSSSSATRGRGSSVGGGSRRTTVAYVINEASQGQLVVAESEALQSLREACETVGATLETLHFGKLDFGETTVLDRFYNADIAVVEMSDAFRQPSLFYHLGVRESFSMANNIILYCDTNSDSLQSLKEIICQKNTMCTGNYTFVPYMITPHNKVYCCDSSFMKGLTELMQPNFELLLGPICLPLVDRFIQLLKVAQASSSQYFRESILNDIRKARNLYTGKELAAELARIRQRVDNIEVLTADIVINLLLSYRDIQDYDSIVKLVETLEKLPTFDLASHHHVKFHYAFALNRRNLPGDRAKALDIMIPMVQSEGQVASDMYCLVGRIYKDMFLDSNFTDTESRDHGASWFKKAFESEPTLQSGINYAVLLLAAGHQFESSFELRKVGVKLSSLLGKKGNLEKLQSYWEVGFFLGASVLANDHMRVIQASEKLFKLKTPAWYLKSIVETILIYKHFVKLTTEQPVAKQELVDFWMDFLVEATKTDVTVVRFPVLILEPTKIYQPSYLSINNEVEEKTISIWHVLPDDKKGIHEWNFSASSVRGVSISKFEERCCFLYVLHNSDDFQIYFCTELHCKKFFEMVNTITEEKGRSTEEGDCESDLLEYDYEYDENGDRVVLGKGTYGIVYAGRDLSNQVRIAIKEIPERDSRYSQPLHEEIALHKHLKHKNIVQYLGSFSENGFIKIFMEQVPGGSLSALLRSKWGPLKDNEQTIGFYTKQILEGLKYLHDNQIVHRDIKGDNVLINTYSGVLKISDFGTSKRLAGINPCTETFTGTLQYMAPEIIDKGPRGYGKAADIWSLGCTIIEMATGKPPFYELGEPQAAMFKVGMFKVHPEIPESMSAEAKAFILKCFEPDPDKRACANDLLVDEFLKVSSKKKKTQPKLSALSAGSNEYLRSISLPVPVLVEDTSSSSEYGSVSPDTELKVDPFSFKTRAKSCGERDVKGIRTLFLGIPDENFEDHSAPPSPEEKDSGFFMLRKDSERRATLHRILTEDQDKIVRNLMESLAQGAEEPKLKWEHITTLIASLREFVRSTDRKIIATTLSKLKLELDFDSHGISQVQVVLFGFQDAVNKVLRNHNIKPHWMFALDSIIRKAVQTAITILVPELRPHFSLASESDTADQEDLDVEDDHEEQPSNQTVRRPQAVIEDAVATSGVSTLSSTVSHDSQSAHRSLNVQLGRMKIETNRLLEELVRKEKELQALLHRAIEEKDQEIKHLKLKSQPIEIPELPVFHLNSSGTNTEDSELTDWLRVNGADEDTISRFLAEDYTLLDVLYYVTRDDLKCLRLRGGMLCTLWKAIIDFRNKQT

HPK1 = HPK1 (Homo sapiens (Human), UniProt Q92918); type: binding; conditions: Lys1, A375 cells, read-out: inhibition of kinase labeling
MAST3 = MAST3 (Homo sapiens (Human), UniProt O60307); type: binding; conditions: Lys2, A375 cells, read-out: inhibition of kinase labeling
PKD3 = PKD3 (Homo sapiens (Human), UniProt O94806); type: binding; conditions: Lys2, A375 cells, read-out: inhibition of kinase labeling
MARK3 = MARK3 (Homo sapiens (Human), UniProt P27448); type: binding; conditions: Lys1, A375 cells, read-out: inhibition of kinase labeling
Chain of MARK3 (P27448 whole entry): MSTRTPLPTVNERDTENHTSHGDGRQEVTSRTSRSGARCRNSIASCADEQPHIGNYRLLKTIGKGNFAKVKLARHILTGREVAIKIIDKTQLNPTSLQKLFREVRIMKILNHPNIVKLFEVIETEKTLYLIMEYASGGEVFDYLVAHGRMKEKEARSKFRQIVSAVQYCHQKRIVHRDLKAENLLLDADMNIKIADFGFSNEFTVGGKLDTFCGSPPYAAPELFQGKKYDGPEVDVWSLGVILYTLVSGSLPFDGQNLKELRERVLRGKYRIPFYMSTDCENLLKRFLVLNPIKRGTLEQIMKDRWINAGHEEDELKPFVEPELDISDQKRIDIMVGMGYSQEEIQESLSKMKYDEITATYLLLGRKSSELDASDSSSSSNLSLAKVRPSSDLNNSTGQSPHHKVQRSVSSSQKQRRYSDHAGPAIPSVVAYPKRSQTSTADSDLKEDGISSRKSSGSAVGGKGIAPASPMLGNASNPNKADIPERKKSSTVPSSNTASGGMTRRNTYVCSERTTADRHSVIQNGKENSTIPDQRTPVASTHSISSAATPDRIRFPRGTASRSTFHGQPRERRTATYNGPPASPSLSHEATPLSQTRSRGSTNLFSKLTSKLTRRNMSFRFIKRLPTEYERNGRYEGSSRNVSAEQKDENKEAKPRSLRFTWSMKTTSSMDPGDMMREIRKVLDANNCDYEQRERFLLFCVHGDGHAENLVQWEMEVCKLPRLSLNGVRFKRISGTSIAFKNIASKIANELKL

IRAK4 = IRAK4 (Homo sapiens (Human), UniProt Q9NWZ3); type: binding; conditions: Lys2, A375 cells, read-out: inhibition of kinase labeling
p70S6K = p70S6K (Homo sapiens (Human), UniProt P23443); type: binding; conditions: Lys2, A375 cells, read-out: inhibition of kinase labeling
p38d, p38g = type: binding, Homo sapiens; conditions: Lys2, 1 μM, A375 cells
Erk1 = Erk1 (Homo sapiens (Human), UniProt P27361); type: binding; conditions: Lys2, A375 cells, read-out: inhibition of kinase labeling
CK1g1 = CK1g1 (Homo sapiens (Human), UniProt Q9HCP0); type: binding; conditions: Lys2, A375 cells, read-out: inhibition of kinase labeling
Chain of CK1g1 (Q9HCP0 whole entry): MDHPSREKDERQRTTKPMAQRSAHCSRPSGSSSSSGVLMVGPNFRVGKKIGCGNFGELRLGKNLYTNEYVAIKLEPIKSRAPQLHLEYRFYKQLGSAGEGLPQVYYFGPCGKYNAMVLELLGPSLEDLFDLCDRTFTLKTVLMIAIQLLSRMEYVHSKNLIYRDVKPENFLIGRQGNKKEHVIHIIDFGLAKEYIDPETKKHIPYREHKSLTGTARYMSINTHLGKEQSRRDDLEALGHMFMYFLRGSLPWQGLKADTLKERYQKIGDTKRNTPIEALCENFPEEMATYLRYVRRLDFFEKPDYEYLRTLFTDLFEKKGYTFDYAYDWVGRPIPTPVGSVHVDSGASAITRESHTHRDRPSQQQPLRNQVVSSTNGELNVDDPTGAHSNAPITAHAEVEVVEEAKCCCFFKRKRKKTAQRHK

CDC2 = CDC2 (Homo sapiens (Human), UniProt P06493); type: binding; conditions: Lys2, A375 cells, read-out: inhibition of kinase labeling
BARK1 = BARK1 (Homo sapiens (Human), UniProt P25098); type: binding; conditions: Lys2, A375 cells, read-out: inhibition of kinase labeling
CSK = CSK (Homo sapiens (Human), UniProt P41240); type: binding; conditions: Activation Loop, A375 cells, read-out: inhibition of kinase labeling
GSK3A = GSK3A (Homo sapiens (Human), UniProt P49840); type: binding; conditions: Lys2, A375 cells, read-out: inhibition of kinase labeling
PIK3C3 = PIK3C3 (Homo sapiens (Human), UniProt Q8NEB9); type: binding; conditions: ATP, A375 cells, read-out: inhibition of kinase labeling
JAK1 = JAK1 (Homo sapiens (Human), UniProt P23458); type: binding; conditions: Protein Kinase Domain, A375 cells, read-out: inhibition of kinase labeling
RSK1 domain2 = RSK1 domain2 (Homo sapiens (Human), UniProt Q15418); type: binding; conditions: Lys2, A375 cells, read-out: inhibition of kinase labeling
MST2 = MST2 (Homo sapiens (Human), UniProt Q13188); type: binding; conditions: Lys1, A375 cells, read-out: inhibition of kinase labeling
LCK = LCK (Homo sapiens (Human), UniProt P06239); type: binding; conditions: Activation Loop, A375 cells, read-out: inhibition of kinase labeling
ROCK1, ROCK2 = type: binding, Homo sapiens; conditions: Lys2, 1 μM, A375 cells
CDK11, CDK8 = type: binding, Homo sapiens; conditions: Lys2, 1 μM, A375 cells
MAP2K3 = MAP2K3 (Homo sapiens (Human), UniProt P46734); type: binding; conditions: Lys2, A375 cells, read-out: inhibition of kinase labeling
JNK1, JNK2, JNK3 = type: binding, Homo sapiens; conditions: Lys2, 1 μM, A375 cells
MST3 = MST3 (Homo sapiens (Human), UniProt Q9Y6E0); type: binding; conditions: Lys2, A375 cells, read-out: inhibition of kinase labeling
CK1g2 = CK1g2 (Homo sapiens (Human), UniProt P78368); type: binding; conditions: Lys2, A375 cells, read-out: inhibition of kinase labeling
MAP2K1, MAP2K2 = type: binding, Homo sapiens; conditions: Lys2, 1 μM, A375 cells
MAP2K1 = MAP2K1 (Homo sapiens (Human), UniProt Q02750); type: binding; conditions: Lys2, A375 cells, read-out: inhibition of kinase labeling
PFTAIRE1 = PFTAIRE1 (Homo sapiens (Human), UniProt O94921); type: binding; conditions: Lys1, A375 cells, read-out: inhibition of kinase labeling
Chain of PFTAIRE1 (O94921 whole entry): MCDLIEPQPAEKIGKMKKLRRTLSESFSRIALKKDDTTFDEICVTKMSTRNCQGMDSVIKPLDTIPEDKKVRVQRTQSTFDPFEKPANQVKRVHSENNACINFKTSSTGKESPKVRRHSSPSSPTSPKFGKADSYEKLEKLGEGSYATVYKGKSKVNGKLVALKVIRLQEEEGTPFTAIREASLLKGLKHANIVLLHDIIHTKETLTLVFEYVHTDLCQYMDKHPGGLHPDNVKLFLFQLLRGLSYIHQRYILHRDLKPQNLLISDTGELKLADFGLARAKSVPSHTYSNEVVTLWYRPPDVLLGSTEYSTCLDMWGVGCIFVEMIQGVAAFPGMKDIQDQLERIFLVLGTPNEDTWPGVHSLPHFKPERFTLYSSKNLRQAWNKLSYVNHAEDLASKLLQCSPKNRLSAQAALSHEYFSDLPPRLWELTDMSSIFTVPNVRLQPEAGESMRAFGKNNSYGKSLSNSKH

[1] = system: CaMK2a, CaMK2b, CaMK2d, CaMK2g; type: binding, Homo sapiens; conditions: Lys2, 1 μM, A375 cells
STLK5 = STLK5 (Homo sapiens (Human), UniProt Q7RTN6); type: binding; conditions: Activation Loop, A375 cells, read-out: inhibition of kinase labeling
SGK3 = SGK3 (Homo sapiens (Human), UniProt Q96BR1); type: binding; conditions: Lys1, A375 cells, read-out: inhibition of kinase labeling
Erk2 = Erk2 (Homo sapiens (Human), UniProt P28482); type: binding; conditions: Lys2, A375 cells, read-out: inhibition of kinase labeling
ACK = ACK (Homo sapiens (Human), UniProt Q07912); type: binding; conditions: Lys1, A375 cells, read-out: inhibition of kinase labeling
Chain of ACK (Q07912 whole entry): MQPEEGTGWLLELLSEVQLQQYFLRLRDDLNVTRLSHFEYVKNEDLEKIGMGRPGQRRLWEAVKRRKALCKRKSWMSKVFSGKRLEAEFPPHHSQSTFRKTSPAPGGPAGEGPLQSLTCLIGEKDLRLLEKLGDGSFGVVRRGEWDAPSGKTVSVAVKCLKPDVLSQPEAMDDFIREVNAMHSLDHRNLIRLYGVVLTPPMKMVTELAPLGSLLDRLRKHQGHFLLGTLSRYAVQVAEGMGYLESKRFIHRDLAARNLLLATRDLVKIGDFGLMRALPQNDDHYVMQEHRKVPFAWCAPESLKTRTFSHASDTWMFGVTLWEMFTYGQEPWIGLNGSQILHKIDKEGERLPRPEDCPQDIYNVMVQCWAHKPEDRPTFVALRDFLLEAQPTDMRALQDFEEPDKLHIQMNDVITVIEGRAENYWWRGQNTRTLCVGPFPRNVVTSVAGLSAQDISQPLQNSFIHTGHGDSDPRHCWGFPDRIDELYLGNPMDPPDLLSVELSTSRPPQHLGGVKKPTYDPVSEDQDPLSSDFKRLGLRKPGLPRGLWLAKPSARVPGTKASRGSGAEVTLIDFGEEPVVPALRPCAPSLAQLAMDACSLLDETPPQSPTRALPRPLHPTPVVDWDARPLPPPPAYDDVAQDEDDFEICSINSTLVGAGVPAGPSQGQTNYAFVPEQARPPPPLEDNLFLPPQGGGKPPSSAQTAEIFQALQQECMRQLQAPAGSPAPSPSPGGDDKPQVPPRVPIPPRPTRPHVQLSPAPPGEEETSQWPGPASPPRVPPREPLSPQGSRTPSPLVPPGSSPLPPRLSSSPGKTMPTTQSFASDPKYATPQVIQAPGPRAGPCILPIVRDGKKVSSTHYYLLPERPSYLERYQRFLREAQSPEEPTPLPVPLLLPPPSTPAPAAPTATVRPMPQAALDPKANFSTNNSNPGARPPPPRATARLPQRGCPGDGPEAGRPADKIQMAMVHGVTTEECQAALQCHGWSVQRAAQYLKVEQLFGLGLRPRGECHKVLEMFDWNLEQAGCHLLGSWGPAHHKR

MAP3K4 = MAP3K4 (Homo sapiens (Human), UniProt Q9Y6R4); type: binding; conditions: Lys2, A375 cells, read-out: inhibition of kinase labeling
MST4, YSK1 = type: binding, Homo sapiens; conditions: Lys2, 1 μM, A375 cells
CaMK2d = CaMK2d (Homo sapiens (Human), UniProt Q13557); type: binding; conditions: Lys1, A375 cells, read-out: inhibition of kinase labeling
AurB = AurB (Homo sapiens (Human), UniProt Q96GD4); type: binding; conditions: Lys1, A375 cells, read-out: inhibition of kinase labeling
LOK = LOK (Homo sapiens (Human), UniProt O94804); type: binding; conditions: Lys2, A375 cells, read-out: inhibition of kinase labeling
Chain of LOK (O94804 whole entry): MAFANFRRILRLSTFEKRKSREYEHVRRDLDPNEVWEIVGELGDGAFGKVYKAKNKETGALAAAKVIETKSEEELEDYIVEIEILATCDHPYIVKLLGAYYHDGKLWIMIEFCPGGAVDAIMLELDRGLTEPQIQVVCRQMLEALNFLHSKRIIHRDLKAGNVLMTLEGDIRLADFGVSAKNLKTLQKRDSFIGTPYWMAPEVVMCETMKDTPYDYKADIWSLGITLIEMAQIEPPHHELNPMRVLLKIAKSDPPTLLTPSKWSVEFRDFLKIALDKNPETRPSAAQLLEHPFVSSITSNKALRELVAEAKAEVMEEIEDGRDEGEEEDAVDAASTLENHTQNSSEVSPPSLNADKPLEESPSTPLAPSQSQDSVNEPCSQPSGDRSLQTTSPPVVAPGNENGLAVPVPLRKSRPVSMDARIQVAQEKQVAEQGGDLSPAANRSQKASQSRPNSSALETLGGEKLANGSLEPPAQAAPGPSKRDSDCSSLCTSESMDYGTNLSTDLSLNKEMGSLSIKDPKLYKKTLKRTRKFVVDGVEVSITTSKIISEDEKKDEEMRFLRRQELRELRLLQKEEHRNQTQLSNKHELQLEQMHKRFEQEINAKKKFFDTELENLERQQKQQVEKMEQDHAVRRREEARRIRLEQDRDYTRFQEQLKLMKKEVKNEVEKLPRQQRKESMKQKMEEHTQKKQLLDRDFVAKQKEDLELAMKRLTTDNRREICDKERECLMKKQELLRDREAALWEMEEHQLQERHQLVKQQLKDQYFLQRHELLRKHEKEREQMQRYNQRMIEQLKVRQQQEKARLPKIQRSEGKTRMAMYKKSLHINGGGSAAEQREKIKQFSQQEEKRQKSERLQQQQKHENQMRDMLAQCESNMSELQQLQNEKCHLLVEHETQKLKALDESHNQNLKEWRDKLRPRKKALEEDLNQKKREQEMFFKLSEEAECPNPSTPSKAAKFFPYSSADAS

GCK = GCK (Homo sapiens (Human), UniProt Q12851); type: binding; conditions: Lys2, A375 cells, read-out: inhibition of kinase labeling

Cc1ccc(C(=O)Nc2cccc(C(C)(C)C#N)c2)cc1NC(=O)c1cncc(-c2cccs2)c1 [I-6, N-(5-((3-(2-cyanopropan-2-yl)phenyl)carbamoyl)-2-methylphenyl)-5-(thiophen-2-yl)nicotinamide] was tested, and the inhibition at 1 µM (RSK1 domain1) was 33.3%, the inhibition at 1 µM (ZAP70) was 7.5% and the inhibition at 1 µM (MAP3K5) was 16.2%. It also gave an inhibition at 1 µM (HPK1) of 7.5%, an inhibition at 1 µM (MAST3) of 18.9% and an inhibition at 1 µM (PKD3) of -4.5%. The inhibition at 1 µM (MARK3) was -2.2%, the inhibition at 1 µM (IRAK4) was -1.4% and the inhibition at 1 µM (p70S6K) was 7.4%. The “inhibition of kinase labeling” value (p38d, p38g) was 17.8%, the inhibition at 1 µM (Erk1) was -3% and the inhibition at 1 µM (CK1g1) was 14.4%. For the same molecule, the inhibition at 1 µM (CDC2) was -7.9%, the inhibition at 1 µM (BARK1) was -1.2% and the inhibition at 1 µM (CSK) was 23.3%. For the same molecule, the inhibition at 1 µM (GSK3A) was 17.3%, the inhibition at 1 µM (PIK3C3) was -23.1% and the inhibition at 1 µM (JAK1) was 16.6%. For the same molecule, the inhibition at 1 µM (RSK1 domain2) was -22.9%, the inhibition at 1 µM (MST2) was -6.1% and the inhibition at 1 µM (LCK) was 82.1%. For the same molecule, the “inhibition of kinase labeling” value (ROCK1, ROCK2) was 12.7%, the “inhibition of kinase labeling” value (CDK11, CDK8) was 20.7% and the inhibition at 1 µM (MAP2K3) was 4.9%. The “inhibition of kinase labeling” value (JNK1, JNK2, JNK3) was 11.7%, the inhibition at 1 µM (MST3) was -0.4% and the inhibition at 1 µM (CK1g2) was 10.8%. For the same molecule, the “inhibition of kinase labeling” value (MAP2K1, MAP2K2) was 4.1%, the inhibition at 1 µM (MAP2K1) was 10.8% and the inhibition at 1 µM (PFTAIRE1) was -31.3%. For the same molecule, the “inhibition of kinase labeling” value [1] was 0.7%, the inhibition at 1 µM (STLK5) was -17.8% and the inhibition at 1 µM (SGK3) was -7.2%. For the same molecule, the inhibition at 1 µM (Erk2) was -11%, the inhibition at 1 µM (ACK) was -1.2% and the inhibition at 1 µM (MAP3K4) was 6.5%. For the same molecule, the “inhibition of kinase labeling” value (MST4, YSK1) was 22%, the inhibition at 1 µM (CaMK2d) was -1.1% and the inhibition at 1 µM (AurB) was -94%. The inhibition at 1 µM (LOK) was 23.9% and the inhibition at 1 µM (GCK) was 21.9%.
